Test results reported in PubChem BioAssay (NCI).
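Grown in 96-well plates, cells were treated for 48 hours with each compound at five concentrations. Insufficient inhibition: endpoint recorded as highest concentration tested. At the GI50, growth is halved. TGI marks complete inhibition of growth.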

Tests used:
Assay in all cases: DTP human tumour cell line panel, 48 h
A549 NSCLC = test system: A549 NSCLC
COLO 205 colon = test system: COLO 205 colon
UACC-257 melanoma = test system: UACC-257 melanoma
TK-10 renal = test system: TK-10 renal
UO-31 renal = test system: UO-31 renal
RXF 393 renal = test system: RXF 393 renal
OVCAR-5 ovarian = test system: OVCAR-5 ovarian
NCI-H23 lung = test system: NCI-H23 lung
HCC-2998 colon = test system: HCC-2998 colon
HS 578T breast = test system: HS 578T breast

Compound: CCOc1ccc(NC(=O)/C(CC(=O)c2c[n+](=O)c3ccccc3n2[O-])=N\OCCCc2ccccc2)cc1
- TGI (A549 NSCLC): > 100 µM
- TGI (COLO 205 colon): > 100 µM
- TGI (UACC-257 melanoma): > 100 µM
- TGI (TK-10 renal): > 100 µM
- TGI (UO-31 renal): > 100 µM
- TGI (RXF 393 renal): > 100 µM
- TGI (OVCAR-5 ovarian): > 100 µM
- TGI (NCI-H23 lung): > 100 µM
- TGI (HCC-2998 colon): > 100 µM

Compound: COc1ccc(-c2ccc(CC(=O)O)cc2)cc1OC
- TGI (A549 NSCLC): > 100 µM
- TGI (COLO 205 colon): > 100 µM
- TGI (UACC-257 melanoma): > 100 µM
- TGI (TK-10 renal): > 100 µM
- TGI (UO-31 renal): > 100 µM
- TGI (OVCAR-5 ovarian): > 100 µM
- TGI (NCI-H23 lung): > 100 µM

Compound: Cc1cccc(C)c1NC(=O)C(=O)Cc1nc2ccccc2s1
- TGI (A549 NSCLC): > 100 µM
- TGI (COLO 205 colon): > 100 µM
- TGI (UACC-257 melanoma): > 100 µM
- TGI (TK-10 renal): > 100 µM
- TGI (UO-31 renal): > 100 µM
- TGI (RXF 393 renal): > 100 µM
- TGI (OVCAR-5 ovarian): > 100 µM
- TGI (NCI-H23 lung): > 100 µM
- TGI (HCC-2998 colon): > 100 µM

Compound: O=C1NC(O)n2c(=O)[nH]c(=O)n21 (centres undefined)
- TGI (A549 NSCLC): > 100 µM
- TGI (COLO 205 colon): > 100 µM
- TGI (UACC-257 melanoma): > 100 µM
- TGI (TK-10 renal): > 100 µM
- TGI (UO-31 renal): > 100 µM
- TGI (RXF 393 renal): > 100 µM
- TGI (OVCAR-5 ovarian): > 100 µM
- TGI (NCI-H23 lung): > 100 µM
- TGI (HCC-2998 colon): > 100 µM

Compound: Cc1cc(Cl)ccc1NC(=O)CCCC(=O)C1C/C(=N/O)CC/C1=N\O (centres undefined)
- TGI (A549 NSCLC): > 100 µM
- TGI (COLO 205 colon): > 100 µM
- TGI (UACC-257 melanoma): > 100 µM
- TGI (TK-10 renal): > 100 µM
- TGI (UO-31 renal): > 100 µM
- TGI (OVCAR-5 ovarian): > 100 µM
- TGI (NCI-H23 lung): > 100 µM
- TGI (HCC-2998 colon): > 100 µM

Compound: COc1cc(C)c2c(c1)CN1CN2Cc2cc(OC)cc(C)c21
- TGI (A549 NSCLC): > 100 µM
- TGI (COLO 205 colon): > 100 µM
- TGI (UO-31 renal): 85.5 µM
- TGI (OVCAR-5 ovarian): > 100 µM
- TGI (NCI-H23 lung): > 100 µM

Compound: COC(=O)C1CC(c2ccc(OC)c(OC)c2)OC1=O (mixture of isomers)
- TGI (A549 NSCLC): > 100 µM
- TGI (COLO 205 colon): > 100 µM
- TGI (UACC-257 melanoma): > 100 µM
- TGI (TK-10 renal): > 100 µM
- TGI (UO-31 renal): > 100 µM
- TGI (RXF 393 renal): > 100 µM
- TGI (OVCAR-5 ovarian): > 100 µM
- TGI (NCI-H23 lung): > 100 µM
- TGI (HCC-2998 colon): > 100 µM

Compound: O=C(Nc1sc2c(c1C(=O)O)CCCC2)c1ccco1
- GI50 (A549 NSCLC): 19.1 µM
- TGI (A549 NSCLC): > 50 µM
- GI50 (HS 578T breast): > 50 µM
- TGI (HS 578T breast): > 50 µM
- GI50 (COLO 205 colon): 44.2 µM
- TGI (COLO 205 colon): > 50 µM
- GI50 (UACC-257 melanoma): > 50 µM
- TGI (UACC-257 melanoma): > 50 µM
- GI50 (TK-10 renal): > 50 µM
- TGI (TK-10 renal): > 50 µM
- GI50 (UO-31 renal): > 50 µM
- TGI (UO-31 renal): > 50 µM
- GI50 (RXF 393 renal): > 50 µM
- TGI (RXF 393 renal): > 50 µM

Compound: COc1cc2c(cc1OCCNC(=O)/C=C1\C[C@H]3C=Nc4cc(OCc5ccccc5)c(OC)cc4C(=O)N3C1)N=C[C@@H]1CCCN1C2=O
- GI50 (A549 NSCLC): 22.3 µM
- TGI (A549 NSCLC): 52.3 µM
- GI50 (HS 578T breast): 5.7 µM
- TGI (HS 578T breast): 25.2 µM
- GI50 (COLO 205 colon): 14.9 µM
- TGI (COLO 205 colon): 68.5 µM
- GI50 (TK-10 renal): 7.07 µM
- TGI (TK-10 renal): 36.7 µM
- GI50 (UO-31 renal): 22.9 µM
- TGI (UO-31 renal): 66.1 µM
- GI50 (RXF 393 renal): 1.98 µM
- TGI (RXF 393 renal): 4.98 µM
- GI50 (OVCAR-5 ovarian): 4.07 µM
- TGI (OVCAR-5 ovarian): 26.3 µM
- GI50 (NCI-H23 lung): 9.26 µM
- TGI (NCI-H23 lung): 27 µM

Compound: CCCCCCCC/C=C/CCCCCCCC1=NC(C)(C)CN1C(C)(C)CO
- GI50 (A549 NSCLC): 1.87 µM
- TGI (A549 NSCLC): 3.82 µM
- GI50 (HS 578T breast): 1.84 µM
- TGI (HS 578T breast): 3.9 µM
- GI50 (COLO 205 colon): 1.88 µM
- TGI (COLO 205 colon): 3.42 µM
- GI50 (UACC-257 melanoma): 1.76 µM
- TGI (UACC-257 melanoma): 3.54 µM
- GI50 (TK-10 renal): 2.61 µM
- TGI (TK-10 renal): 7.46 µM
- GI50 (RXF 393 renal): 2.17 µM
- TGI (RXF 393 renal): 3.99 µM
- GI50 (OVCAR-5 ovarian): 2.15 µM
- TGI (OVCAR-5 ovarian): 5.09 µM
- GI50 (NCI-H23 lung): 1.77 µM
- TGI (NCI-H23 lung): 3.46 µM
- GI50 (HCC-2998 colon): 1.65 µM
- TGI (HCC-2998 colon): 3.04 µM
